Experimental data taken from ChEMBL document CHEMBL1240518, “Replacement of the Lys linker with an Arg linker resulting in improved melanoma uptake and reduced renal uptake of Tc-99m-labeled Arg-Gly-Asp-conjugated alpha-melanocyte stimulating hormone hybrid peptide” (Bioorg Med Chem, 2010).
Residues, ends and D or L forms follow the SMILES beside them.

Assay: Cytotoxicity against mouse B16-F1 cells assessed as reduction of cell survival after 3 hrs by clonogenic assay relative to control

Compound: N=C(N)NCCC[C@@H]1NC(=O)CNC(=O)[C@H](CC(=O)O)NC(=O)[C@H](Cc2ccc(O)cc2)NC(=O)[C@H](CC(=O)O)NC1=O (cyclo(DGRDY))
- Activity: 7%
